In PubChem BioAssay (NCI):
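GI50 is the concentration that inhibits growth by half. Definition used: TGI = concentration required for complete inhibition of growth.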

Columns and labels:
Assay in all cases: inhibition of tumour cell growth, NCI panel, 384-well format
NCI-H226 lung = test system: NCI-H226 lung
NCI-H23 lung = test system: NCI-H23 lung
NCI-H322M lung = test system: NCI-H322M lung
NCI-H460 NSCLC = test system: NCI-H460 NSCLC
NCI-H522 lung = test system: NCI-H522 lung
NCI/ADR-RES ovarian = test system: NCI/ADR-RES ovarian
OVCAR-3 ovarian = test system: OVCAR-3 ovarian
OVCAR-4 ovarian = test system: OVCAR-4 ovarian
OVCAR-5 ovarian = test system: OVCAR-5 ovarian
PC-3 prostate = test system: PC-3 prostate
RPMI-8226 leukemia = test system: RPMI-8226 leukemia
RXF 393 renal = test system: RXF 393 renal
SF-268 CNS = test system: SF-268 CNS
SF-295 CNS = test system: SF-295 CNS
SF-539 CNS = test system: SF-539 CNS
SK-MEL-2 melanoma = test system: SK-MEL-2 melanoma
SK-MEL-28 melanoma = test system: SK-MEL-28 melanoma
SK-MEL-5 melanoma = test system: SK-MEL-5 melanoma
SK-OV-3 ovarian = test system: SK-OV-3 ovarian
SN12C renal = test system: SN12C renal
SNB-19 CNS = test system: SNB-19 CNS
SNB-75 CNS = test system: SNB-75 CNS
SR leukemia = test system: SR leukemia
SW-620 colon = test system: SW-620 colon
T-47D breast = test system: T-47D breast
TK-10 renal = test system: TK-10 renal
U251 glioblastoma = test system: U251 glioblastoma
UACC-257 melanoma = test system: UACC-257 melanoma
UACC-62 melanoma = test system: UACC-62 melanoma
UO-31 renal = test system: UO-31 renal

`NC1(Cc2ccc(Cl)cc2)CCN(c2ncnc3[nH]ccc23)CC1` gave a TGI (NCI-H226 lung) of 18.1 µM, a GI50 (NCI-H23 lung) of 4 µM and a TGI (NCI-H23 lung) of 16 µM. For the same compound, the GI50 (NCI-H322M lung) was 4.85 µM, the TGI (NCI-H322M lung) was 17.6 µM and the GI50 (NCI-H460 NSCLC) was 1.76 µM. For the same compound, the TGI (NCI-H460 NSCLC) was 9.36 µM, the GI50 (NCI-H522 lung) was 5.41 µM and the TGI (NCI-H522 lung) was 19.5 µM. The GI50 (NCI/ADR-RES ovarian) was 8.66 µM, the TGI (NCI/ADR-RES ovarian) was 21.1 µM and the GI50 (OVCAR-3 ovarian) was 9.12 µM. It also gave a TGI (OVCAR-3 ovarian) of 21.4 µM, a GI50 (OVCAR-4 ovarian) of 16.4 µM and a TGI (OVCAR-4 ovarian) of 43.9 µM. It also gave a GI50 (OVCAR-5 ovarian) of 6.84 µM, a TGI (OVCAR-5 ovarian) of 26.7 µM and a GI50 (PC-3 prostate) of 3.11 µM. The TGI (PC-3 prostate) was 15.8 µM, the GI50 (RPMI-8226 leukemia) was 1.36 µM and the TGI (RPMI-8226 leukemia) was 4.48 µM. The GI50 (RXF 393 renal) was 2.14 µM, the TGI (RXF 393 renal) was 7.4 µM and the GI50 (SF-268 CNS) was 5.54 µM. The TGI (SF-268 CNS) was 18.2 µM, the GI50 (SF-295 CNS) was 2.74 µM and the TGI (SF-295 CNS) was 14.8 µM. It also gave a GI50 (SF-539 CNS) of 1.46 µM, a TGI (SF-539 CNS) of 7.16 µM and a GI50 (SK-MEL-2 melanoma) of 7.52 µM. For the same compound, the TGI (SK-MEL-2 melanoma) was 19 µM, the GI50 (SK-MEL-28 melanoma) was 2.26 µM and the TGI (SK-MEL-28 melanoma) was 5.94 µM. The GI50 (SK-MEL-5 melanoma) was 3.17 µM, the TGI (SK-MEL-5 melanoma) was 12.8 µM and the GI50 (SK-OV-3 ovarian) was 3.84 µM. The TGI (SK-OV-3 ovarian) was 17.3 µM, the GI50 (SN12C renal) was 3.46 µM and the TGI (SN12C renal) was 14.9 µM. For the same compound, the GI50 (SNB-19 CNS) was 3.28 µM, the TGI (SNB-19 CNS) was 13.5 µM and the GI50 (SNB-75 CNS) was 1.54 µM. The TGI (SNB-75 CNS) was 7.76 µM, the GI50 (SR leukemia) was 2.07 µM and the TGI (SR leukemia) was 4 µM. It also gave a GI50 (SW-620 colon) of 4.6 µM, a TGI (SW-620 colon) of 16.2 µM and a GI50 (T-47D breast) of 2.35 µM. It also gave a TGI (T-47D breast) of 12.7 µM, a GI50 (TK-10 renal) of 3.15 µM and a TGI (TK-10 renal) of 13.3 µM. The GI50 (U251 glioblastoma) was 4.4 µM, the TGI (U251 glioblastoma) was 15.7 µM and the GI50 (UACC-257 melanoma) was 1.93 µM. For the same compound, the TGI (UACC-257 melanoma) was 3.96 µM, the GI50 (UACC-62 melanoma) was 4.76 µM and the TGI (UACC-62 melanoma) was 16.4 µM. It also gave a GI50 (UO-31 renal) of 4.28 µM and a TGI (UO-31 renal) of 17.6 µM.
